Measured values taken from PubChem BioAssay (NCI).
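Briefly, cells in 96-well plates were exposed to five compound concentrations for 48 h, and endpoints were estimated by linear interpolation. GI50: concentration for 50% inhibition of growth. TGI denotes the concentration required for complete inhibition of growth.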

What was measured:
Test in all cases: NCI anticancer screen, dose series, 48 h
786-0 renal = system: 786-0 renal
A498 renal = system: A498 renal
A549 NSCLC = system: A549 NSCLC
ACHN renal = system: ACHN renal
BT-549 breast = system: BT-549 breast
CAKI-1 renal = system: CAKI-1 renal
CCRF-CEM leukemia = system: CCRF-CEM leukemia
COLO 205 colon = system: COLO 205 colon
DU-145 prostate = system: DU-145 prostate
EKVX NSCLC = system: EKVX NSCLC
HCC-2998 colon = system: HCC-2998 colon
HCT-116 colon = system: HCT-116 colon
HCT-15 colon = system: HCT-15 colon
HL-60(TB) leukemia = system: HL-60(TB) leukemia
HOP-62 NSCLC = system: HOP-62 NSCLC
HOP-92 NSCLC = system: HOP-92 NSCLC
HS 578T breast = system: HS 578T breast
HT29 colon = system: HT29 colon
IGROV1 ovarian = system: IGROV1 ovarian
K-562 leukemia = system: K-562 leukemia
KM12 colon = system: KM12 colon
LOX IMVI melanoma = system: LOX IMVI melanoma
M14 melanoma = system: M14 melanoma
MALME-3M melanoma = system: MALME-3M melanoma
MCF7 breast = system: MCF7 breast
MDA-MB-231 breast = system: MDA-MB-231 breast
MDA-MB-435 = system: MDA-MB-435
MOLT-4 leukemia = system: MOLT-4 leukemia
NCI-H226 lung = system: NCI-H226 lung
NCI-H23 lung = system: NCI-H23 lung
NCI-H460 lung = system: NCI-H460 lung
NCI-H522 lung = system: NCI-H522 lung
NCI/ADR-RES ovarian = system: NCI/ADR-RES ovarian
OVCAR-3 ovarian = system: OVCAR-3 ovarian
OVCAR-4 ovarian = system: OVCAR-4 ovarian
OVCAR-5 ovarian = system: OVCAR-5 ovarian
OVCAR-8 ovarian = system: OVCAR-8 ovarian
PC-3 prostate = system: PC-3 prostate
RPMI-8226 leukemia = system: RPMI-8226 leukemia
RXF 393 renal = system: RXF 393 renal
SF-268 CNS = system: SF-268 CNS
SF-295 CNS = system: SF-295 CNS
SF-539 CNS = system: SF-539 CNS
SK-MEL-2 melanoma = system: SK-MEL-2 melanoma
SK-MEL-28 melanoma = system: SK-MEL-28 melanoma
SK-MEL-5 melanoma = system: SK-MEL-5 melanoma
SK-OV-3 ovarian = system: SK-OV-3 ovarian
SN12C renal = system: SN12C renal
SNB-19 CNS = system: SNB-19 CNS
SNB-75 CNS = system: SNB-75 CNS
SR leukemia = system: SR leukemia
SW-620 colon = system: SW-620 colon
T-47D breast = system: T-47D breast
TK-10 renal = system: TK-10 renal
U251 CNS = system: U251 CNS
UACC-257 melanoma = system: UACC-257 melanoma
UACC-62 melanoma = system: UACC-62 melanoma
UO-31 renal = system: UO-31 renal

Compound `Nc1nc(N)c2nc(CNc3ccc(C(=O)CC(CCC(=O)O)C(=O)O)cc3)cnc2n1` (centres undefined) has a GI50 (786-0 renal) of 56.6 nM, a TGI (786-0 renal) greater than 100000 nM and a GI50 (A498 renal) of 3150 nM. The TGI (A498 renal) was greater than 100000 nM, the GI50 (A549 NSCLC) was 153 nM and the TGI (A549 NSCLC) was greater than 100000 nM. It also gave a GI50 (ACHN renal) of 162 nM, a TGI (ACHN renal) greater than 100000 nM and a GI50 (BT-549 breast) of 357 nM. The GI50 (CAKI-1 renal) was 41.2 nM, the TGI (CAKI-1 renal) was greater than 100000 nM and the GI50 (CCRF-CEM leukemia) was 56.2 nM. It also gave a TGI (CCRF-CEM leukemia) greater than 100000 nM, a GI50 (COLO 205 colon) of 5770 nM and a TGI (COLO 205 colon) greater than 100000 nM. It also gave a GI50 (DU-145 prostate) of 2240 nM, a TGI (DU-145 prostate) greater than 100000 nM and a GI50 (EKVX NSCLC) of 517 nM. It also gave a TGI (EKVX NSCLC) greater than 100000 nM, a GI50 (HCC-2998 colon) of 179 nM and a TGI (HCC-2998 colon) greater than 96200 nM. It also gave a GI50 (HCT-116 colon) of less than 18.5 nM, a TGI (HCT-116 colon) greater than 100000 nM and a GI50 (HCT-15 colon) of 168 nM. It also gave a TGI (HCT-15 colon) greater than 100000 nM, a GI50 (HL-60(TB) leukemia) of less than 18 nM and a TGI (HL-60(TB) leukemia) greater than 100000 nM. The GI50 (HOP-62 NSCLC) was 127 nM, the TGI (HOP-62 NSCLC) was greater than 100000 nM and the GI50 (HOP-92 NSCLC) was greater than 100000 nM. The TGI (HOP-92 NSCLC) was greater than 100000 nM, the GI50 (HS 578T breast) was greater than 100000 nM and the TGI (HS 578T breast) was greater than 100000 nM. It also gave a GI50 (HT29 colon) of 41.7 nM, a TGI (HT29 colon) greater than 100000 nM and a GI50 (IGROV1 ovarian) of 465 nM. The TGI (IGROV1 ovarian) was greater than 100000 nM, the GI50 (K-562 leukemia) was 40.6 nM and the TGI (K-562 leukemia) was greater than 100000 nM. For the same compound, the GI50 (KM12 colon) was 232 nM, the TGI (KM12 colon) was greater than 100000 nM and the GI50 (LOX IMVI melanoma) was less than 22.9 nM. It also gave a TGI (LOX IMVI melanoma) greater than 100000 nM, a GI50 (M14 melanoma) of 202 nM and a TGI (M14 melanoma) greater than 100000 nM. For the same compound, the GI50 (MALME-3M melanoma) was 1430 nM, the TGI (MALME-3M melanoma) was greater than 100000 nM and the GI50 (MCF7 breast) was 71.4 nM. It also gave a TGI (MCF7 breast) greater than 100000 nM, a GI50 (MDA-MB-231 breast) greater than 100000 nM and a TGI (MDA-MB-231 breast) greater than 100000 nM. For the same compound, the GI50 (MDA-MB-435) was 137 nM, the TGI (MDA-MB-435) was greater than 100000 nM and the GI50 (MOLT-4 leukemia) was 125 nM. For the same compound, the TGI (MOLT-4 leukemia) was greater than 100000 nM, the GI50 (NCI-H226 lung) was 1070 nM and the TGI (NCI-H226 lung) was greater than 100000 nM. For the same compound, the GI50 (NCI-H23 lung) was 441 nM, the TGI (NCI-H23 lung) was greater than 100000 nM and the GI50 (NCI-H460 lung) was 127 nM. It also gave a TGI (NCI-H460 lung) greater than 100000 nM, a GI50 (NCI-H522 lung) of 470 nM and a TGI (NCI-H522 lung) greater than 100000 nM. The GI50 (NCI/ADR-RES ovarian) was 224 nM, the TGI (NCI/ADR-RES ovarian) was greater than 100000 nM and the GI50 (OVCAR-3 ovarian) was greater than 100000 nM. For the same compound, the TGI (OVCAR-3 ovarian) was greater than 100000 nM, the TGI (OVCAR-4 ovarian) was greater than 100000 nM and the TGI (OVCAR-5 ovarian) was greater than 100000 nM. The GI50 (OVCAR-8 ovarian) was 166 nM, the TGI (OVCAR-8 ovarian) was greater than 100000 nM and the TGI (PC-3 prostate) was greater than 100000 nM. The TGI (RPMI-8226 leukemia) was greater than 100000 nM, the GI50 (RXF 393 renal) was greater than 100000 nM and the TGI (RXF 393 renal) was greater than 100000 nM. The GI50 (SF-268 CNS) was 197 nM, the TGI (SF-268 CNS) was greater than 100000 nM and the GI50 (SF-295 CNS) was 190 nM. It also gave a TGI (SF-295 CNS) greater than 100000 nM, a GI50 (SF-539 CNS) of 176 nM and a TGI (SF-539 CNS) greater than 100000 nM. It also gave a GI50 (SK-MEL-2 melanoma) greater than 100000 nM, a TGI (SK-MEL-2 melanoma) greater than 100000 nM and a GI50 (SK-MEL-28 melanoma) greater than 50700 nM. The TGI (SK-MEL-28 melanoma) was greater than 100000 nM, the GI50 (SK-MEL-5 melanoma) was 450 nM and the TGI (SK-MEL-5 melanoma) was greater than 100000 nM. It also gave a TGI (SK-OV-3 ovarian) greater than 100000 nM, a GI50 (SN12C renal) of 180 nM and a TGI (SN12C renal) greater than 100000 nM. The GI50 (SNB-19 CNS) was 627 nM, the TGI (SNB-19 CNS) was greater than 100000 nM and the GI50 (SNB-75 CNS) was 4710 nM. The TGI (SNB-75 CNS) was greater than 100000 nM, the GI50 (SR leukemia) was less than 19 nM and the GI50 (SW-620 colon) was 33.2 nM. The TGI (SW-620 colon) was greater than 100000 nM, the GI50 (T-47D breast) was greater than 100000 nM and the TGI (T-47D breast) was greater than 100000 nM. The GI50 (TK-10 renal) was 385 nM, the TGI (TK-10 renal) was greater than 100000 nM and the GI50 (U251 CNS) was 215 nM. For the same compound, the TGI (U251 CNS) was greater than 100000 nM, the GI50 (UACC-257 melanoma) was greater than 25500 nM and the TGI (UACC-257 melanoma) was greater than 100000 nM. For the same compound, the GI50 (UACC-62 melanoma) was 374 nM, the TGI (UACC-62 melanoma) was greater than 100000 nM and the GI50 (UO-31 renal) was 168 nM. The TGI (UO-31 renal) was greater than 100000 nM.
